Experimental data from patent US20040253597A1, “Novel protein and dna thereof” (priority 2001, published 2004).

Molecular target: T1, human TCH169 (Homo sapiens, UniProt Q86YT5)
T1 construct: expressed in transfected cells
Test: [1,5-^14C] citric acid uptake in the human TCH169 gene expression cell line
Type: cell-based
Conditions: human TCH169 expressing CHO cells clone No. 2-11; NaCl buffer (140 mM NaCl) vs NMDG buffer and Mock cells; 37° C., 15 minutes, 30 minutes and an hour
Method: Using human TCH169 gene expression cell line clone No. 2-11 acquired in EXAMPLE 7, the uptake of [1,5-^14C] citric acid was assayed. Human TCH169 gene expression cell line clone No. 2-11 was seeded on a 96 well plate in 4×10^4 cells per well, followed by incubation at 37° C. for 24 hours. After the medium was removed, the cells were washed 3 times with 150 μL NMDG buffer (140 mM N-methyl-D(−)-glucamine, 25 mM Hepes/Tris, 5.4 mM KCl, 1.8 mM CaCl2, 0.8 mM MgSO4, 5 mM glucose, pH 7.4-7.6), and 150 μL NMDG buffer was supplemented thereto followed by incubation at 37° C. for an hour. After the buffer was replaced with 90 μL NaCl buffer (140 mM NaCl, 25 mM Hepes/Tris, 5.4 mM KCl, 1.8 mM CaCl2, 0.8 mM MgSO4, 5 mM glucose, pH 7.4-7.6) or 90 μL NMDG buffer, 10 μL of 223 μM [1,5-^14C] citric acid (manufactured by Amersham-Pharmacia-Biotech) was added and incubation was performed at 37° C. for 15 minutes, 30 minutes and an hour followed by washing 3 times with 200 μL PBS (manufactured by Takara Shuzo Co., Ltd.). After 100 μL of Opitiphase ‘SuperMix’ (manufactured by Perkin-Elmer-Life Science) was added to the system and the mixture was stirred, the amount of [1,5-^14C] citric acid taken up into the cells was measured in terms of the radioactivity. […] CHO dhfr^− cells transfected with vector pcDNA3.1(+) (Mock) was also treated in a similar manner to measure the radioactivity as well.

T1 sequence (Q86YT5 whole entry): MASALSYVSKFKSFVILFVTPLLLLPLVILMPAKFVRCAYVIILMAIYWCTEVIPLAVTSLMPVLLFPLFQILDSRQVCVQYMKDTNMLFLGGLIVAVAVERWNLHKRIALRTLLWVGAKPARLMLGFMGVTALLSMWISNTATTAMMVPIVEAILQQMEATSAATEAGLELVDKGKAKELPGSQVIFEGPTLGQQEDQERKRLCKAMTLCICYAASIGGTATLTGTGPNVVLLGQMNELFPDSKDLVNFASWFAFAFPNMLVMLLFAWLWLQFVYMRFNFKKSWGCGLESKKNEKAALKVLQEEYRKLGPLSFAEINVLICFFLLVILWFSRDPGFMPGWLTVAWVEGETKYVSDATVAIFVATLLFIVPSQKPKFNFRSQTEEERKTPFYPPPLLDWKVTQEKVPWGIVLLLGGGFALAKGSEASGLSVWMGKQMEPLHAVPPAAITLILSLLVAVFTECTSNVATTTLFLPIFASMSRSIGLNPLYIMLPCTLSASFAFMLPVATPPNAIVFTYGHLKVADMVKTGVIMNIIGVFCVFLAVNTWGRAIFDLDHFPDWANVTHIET

O=C(O)C(O)(C[14C](=O)O)C[14C](=O)O [[1,5-^14C] citric acid]
uptake of [1,5-^14C] citric acid into the cells (radioactivity): taken up into the human TCH169 expression CHO cells
